Measured values published in US12252490B2, “Inhibiting deubiquitinase USP25 and USP28” (Valo Health, Inc., priority 2018, dated 2025).

What follows are compounds tested against T1, USP28 (His-tagged USP28-FL-mammalian) (Homo sapiens, UniProt Q96RU2) (assay: Ubiquitin-Rhodamine 110 Assay for USP28 Activity, Example A-1(a)). Details: USP28, 75 pM enzyme, 25 nM Ub-Rh110, 1536-well, 30 min preincubation; read-out: Assay A-1(a) (IC50 range).
T1 construct: Expression of USP28 (1-1077)-TEV-6*His (pTT5 vector) was carried out in Expi293f cells; made in house; host or cells: Expi293f cells (pTT5 vector)
T1 sequence (Q96RU2 1-1077): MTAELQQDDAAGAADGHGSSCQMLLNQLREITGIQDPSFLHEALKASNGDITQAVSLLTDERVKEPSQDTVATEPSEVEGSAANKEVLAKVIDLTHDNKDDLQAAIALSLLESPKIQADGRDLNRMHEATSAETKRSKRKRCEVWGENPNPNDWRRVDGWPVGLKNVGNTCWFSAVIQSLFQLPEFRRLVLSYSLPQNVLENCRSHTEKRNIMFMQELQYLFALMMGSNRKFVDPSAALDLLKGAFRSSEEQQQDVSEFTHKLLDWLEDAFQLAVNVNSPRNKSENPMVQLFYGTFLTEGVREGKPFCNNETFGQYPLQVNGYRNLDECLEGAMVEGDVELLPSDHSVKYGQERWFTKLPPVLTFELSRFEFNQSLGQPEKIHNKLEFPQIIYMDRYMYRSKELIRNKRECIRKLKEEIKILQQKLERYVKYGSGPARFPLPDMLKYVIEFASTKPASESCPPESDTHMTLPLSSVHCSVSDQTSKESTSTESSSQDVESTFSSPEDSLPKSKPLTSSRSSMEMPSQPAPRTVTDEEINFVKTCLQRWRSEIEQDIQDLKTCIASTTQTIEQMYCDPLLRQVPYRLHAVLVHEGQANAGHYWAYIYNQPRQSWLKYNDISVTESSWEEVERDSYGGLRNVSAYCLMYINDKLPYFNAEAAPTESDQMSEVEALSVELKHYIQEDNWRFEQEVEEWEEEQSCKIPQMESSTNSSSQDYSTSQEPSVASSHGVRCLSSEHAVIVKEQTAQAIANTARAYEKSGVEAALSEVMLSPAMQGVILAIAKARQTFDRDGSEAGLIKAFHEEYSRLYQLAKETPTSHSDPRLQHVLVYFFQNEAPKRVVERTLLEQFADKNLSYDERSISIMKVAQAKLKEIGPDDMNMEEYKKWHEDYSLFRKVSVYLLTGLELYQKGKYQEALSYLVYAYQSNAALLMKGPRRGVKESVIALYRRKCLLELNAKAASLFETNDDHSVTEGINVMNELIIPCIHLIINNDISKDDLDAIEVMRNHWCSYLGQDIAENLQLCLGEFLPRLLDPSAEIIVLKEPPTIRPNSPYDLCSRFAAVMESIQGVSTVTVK
Type: biochemical
Protocol: The assay was performed in a final volume of 9 μL in assay buffer containing 20 mM Tris-HCl (pH 8.0, (1M Tris-HCl, pH 8.0 solution; Corning 46-031-CM)), 3 mM BME (2-Mercaptoethanol; Sigma 63689-25ML-F), 0.03% BGG (0.22 μM filtered, Sigma, G7516-25G), and 0.01% Triton X-100 (Sigma, T9284-10L). Nanoliter quantities of 10-point, 3-fold serial dilution in DMSO was pre-dispensed into 1536 assay plates (Corning, #3724BC) for a final test concentration of 25 μM to 1.3 nM, top to lowest dose, respectively. Enzyme USP28, construct His-tagged USP28-FL-mammalian, (protein expression and purification procedure described below). Concentration and incubation times were optimized for the maximal signal-to-background while maintaining initial velocity conditions at a fixed substrate concentration. The final concentration of the enzyme in the assay was 75 pM. Final substrate (Ub-Rh110; Ubiquitin-Rhodamine 110, UbiQ-126) concentration was 25 nM with [Ub-Rh110]<<Km. 3 μL of 2× enzyme was added to assay plates (pre-stamped with compound) preincubated with […] for 30 minutes and then 3 μL of 2×Ub-Rh110 was added to assay plates. Plates were incubated for 45 minutes at room temperature before addition of 3 μL of stop solution (final concentration of 10 mM citric acid (Sigma, 251275-500G)). Fluorescence was read on the Envision (Excitation at 485 nm and Emission at 535 nm; Perkin Elmer) or on the PheraSTAR (Excitation at 485 nm and Emission at 535 nm; BMG Labtech).
Expression of USP28 (1-1077)-TEV-6*His (pTT5 vector) was carried out in Expi293f cells (sequence derived from uniprot ID: Q96RU2-1). Cells were re-suspended in lysis buffer B 50 mM Bicine, pH 8.0, 20 mM NaCl, 5% glycerol, 0.1% CHAPS, 5 mM β-ME, 1 mM PMSF, 1 μg/ml Leupeptin, 1 μg/ml Pepstatin) and lysed by sonication. Insoluble material was removed by centrifugation and the supernatant was loaded onto a Ni-NTA column (GE Healthcare) equilibrated with Ni Buffer A (50 mM Bicine, pH 8.0, 20 mM NaCl, 5% glycerol, 0.1% CHAPS, 5 mM β-ME.) and washed with Ni Buffer A+20 mM imidazole until A280 reached baseline. The protein was eluted with Ni Buffer B (50 mM Bicine, pH 8.0, 20 mM NaCl, 5% glycerol, 0.1% CHAPS, 5 mM β-ME, 300 mM imidazole.). The protein was further purified using a Superdex™ 200 10/300 GL column (GE Healthcare) equilibrated with 50 mM Bicine, pH 8.0, 20 mM NaCl, 5% glycerol, 0.1% CHAPS, 5 mM β-ME. The protein was concentrated to 2.5 mg ml^−1, flash-frozen in liquid N2 and stored at −80° C.
For assay formats Examples A-1a, A-1b, and A-2, data were reported as percent inhibition compared with control wells based on the following equation: % inh=1−((FLU−AveLow)/(AveHigh−AveLow)) where FLU=measured Fluorescence, AveLow=average Fluorescence of no enzyme control (n=16), and AveHigh=average Fluorescence of DMSO control (n=16). IC50 values were determined by curve fitting of the standard 4 parameter logistic fitting algorithm included in the Activity Base software package: IDBS XE Designer Model205. Data is fitted using the Levenburg Marquardt algorithm.

First: CCn1ccc2cc(C(=O)NC[C@@H](C)c3cc(F)c(N4CCNCC4)cc3F)cnc21 (single isomer, unassigned) [Example 2-1]
Second: CCn1ccc2cc(C(=O)NC[C@H](C)c3cc(F)c(N4CCNCC4)cc3F)cnc21 (single isomer, unassigned) [Example 2-2]
The IC50 of the first is lower: 50 to 200 nM for the first, 200 to 2000 nM for the second. The first is the more potent here.

First: CCn1ccc2cc(C(=O)NC[C@H](C)c3cc(F)c(N4CC5CCC(C4)N5)cc3F)cnc21 (single isomer, unassigned) [Example 2-3]
Second: CCn1ccc2cc(C(=O)NC[C@@H](C)c3cc(F)c(N4CC5CCC(C4)N5)cc3F)cnc21 (single isomer, unassigned) [Example 2-4]
The IC50 of the first is lower: 1 to 50 nM for the first, 50 to 200 nM for the second.

`CCn1ccc2cc(C(=O)NC[C@H](C)c3cc(F)c(N4CC5CCC(C4)N5)cc3F)nnc21` (single isomer, unassigned) [Example 4-2] and `CCn1ccc2cc(C(=O)NC[C@@H](C)c3cc(F)c(N4CC5CCC(C4)N5)cc3F)nnc21` (single isomer, unassigned) [Example 4-3] fall in the same range of IC50: 50 to 200 nM for the first, 50 to 200 nM for the second.

First: CCn1ccc2cc(C(=O)NCCc3cc(F)c(N4CC5CCC(C4)N5)cc3F)cnc21 [Example 1-1, N-[2-(4-[3,8-diazabicyclo[3.2.1]octan-3-yl]-2,5-difluorophenyl)ethyl]-1-ethyl-1H-pyrrolo[2,3-b]pyridine-5-carboxamide]
Second: CC(C)(O)Cn1ccc2cc(C(=O)NCCc3cc(F)c(N4CC5CCC(C4)N5)cc3F)cnc21 [Example 1-9, N-(4-(3,8-diazabicyclo[3.2.1]octan-3-yl)-2,5-difluorophenethyl)-1-(2-hydroxy-2-methylpropyl)-1H-pyrrolo[2,3-b]pyridine-5-carboxamide]
The IC50 of the first is lower: 1 to 50 nM for the first, 2000 to 10000 nM for the second.

`O=C(NCCc1ccc(N2CCNCC2)cc1)c1cnc2[nH]ccc2c1` [Example 1-2, N-(4-(piperazin-1-yl)phenethyl)-1H-pyrrolo[2,3-b]pyridine-5-carboxamide] and `Cn1ccc2cc(C(=O)NCCc3ccc(N4CCNCC4)cc3)cnc21` [Example 1-3, 1-methyl-N-(4-(piperazin-1-yl)phenethyl)-1H-pyrrolo[2,3-b]pyridine-5-carboxamide] fall in the same range of IC50: 200 to 2000 nM for the first, 200 to 2000 nM for the second.

`CCn1ccc2cc(C(=O)NCCc3ccc(N4CCNCC4)cc3)cnc21` [Example 1-4, 1-ethyl-N-(4-(piperazin-1-yl)phenethyl)-1H-pyrrolo[2,3-b]pyridine-5-carboxamide] and `O=C(NCCc1ccc(N2CCNCC2)cc1)c1cnc2c(ccn2CC(F)(F)F)c1` [Example 1-8] fall in the same range of IC50: 1 to 50 nM for the first, 1 to 50 nM for the second.

`Nc1c(C(=O)NCCc2ccc(N3CCNCC3)cc2)cnc2[nH]ccc12` [Example 1-5, 4-amino-N-(4-(piperazin-1-yl)phenethyl)-1H-pyrrolo[2,3-b]pyridine-5-carboxamide] and `O=C(NCCc1ccc(N2CCNCC2)cc1)c1cnc2[nH]cc(Cl)c2c1` [Example 3-2, 3-chloro-N-(4-(piperazin-1-yl)phenethyl)-1H-pyrrolo[2,3-b]pyridine-5-carboxamide] fall in the same range of IC50: 200 to 2000 nM for the first, 200 to 2000 nM for the second.

`CCn1ccc2cc(C(=O)NCCc3ccc(N4CC5CCC(C4)N5)cc3)cnc21` [Example 1-6, N-(4-(3,8-diazabicyclo[3.2.1]octan-3-yl)phenethyl)-1-ethyl-1H-pyrrolo[2,3-b]pyridine-5-carboxamide] and `CCn1ccc2cc(C(=O)NCCc3ccc(N4CC5CCC(C4)N5)c(F)c3)cnc21` [Example 1-10, N-(4-(3,8-diazabicyclo[3.2.1]octan-3-yl)-3-fluorophenethyl)-1-ethyl-1H-pyrrolo[2,3-b]pyridine-5-carboxamide] fall in the same range of IC50: 1 to 50 nM for the first, 1 to 50 nM for the second.

`CCn1ccc2cc(C(=O)NCCc3cc(F)c(N4CCNCC4)cc3F)cnc21` [Example 1-7, N-(2,5-difluoro-4-(piperazin-1-yl)phenethyl)-1-ethyl-1H-pyrrolo[2,3-b]pyridine-5-carboxamide] and `CCn1ccc2cc(C(=O)NCCc3cc(F)c(N4CC5CCC(C4)N5)cc3F)nnc21` [Example 4-1, N-[2-(4-[3,8-diazabicyclo[3.2.1]octan-3-yl]-2,5-difluorophenyl)ethyl]-7-ethyl-7H-pyrrolo[2,3-c]pyridazine-3-carboxamide] fall in the same range of IC50: 1 to 50 nM for the first, 1 to 50 nM for the second.

`CCn1cc(Cl)c2cc(C(=O)NCCc3ccc(N4CCNCC4)cc3)cnc21` [Example 3-1, 3-Chloro-1-ethyl-N-[2-[4-(piperazin-1-yl)phenyl]ethyl]-1H-pyrrolo[2,3-b]pyridine-5-carboxamide] and `CCn1cc(Cl)c2cc(C(=O)NCCc3cc(F)c(N4CC5CCC(C4)N5)cc3F)nnc21` [Example 4-4, N-(4-(3,8-diazabicyclo[3.2.1]octan-3-yl)-2,5-difluorophenethyl)-5-chloro-7-ethyl-7H-pyrrolo[2,3-c]pyridazine-3-carboxamide] fall in the same range of IC50: 1 to 50 nM for the first, 1 to 50 nM for the second.
